Residues, ends and D or L forms follow the SMILES beside them.

The values that follow come from patent US9341616B2, “Sweet taste receptor chimeric proteins and use thereof” (AJINOMOTO CO., INC., priority 2014, dated 2016).

For the test, the target named is T1, hT1R2/hT1R3 (Homo sapiens, UniProt Q7RTX0+Q8TE23, C757R).
T1 construct: expressed in transfected cells; host or cells: HEK293E
T1 sequence (Q8TE23 20-839): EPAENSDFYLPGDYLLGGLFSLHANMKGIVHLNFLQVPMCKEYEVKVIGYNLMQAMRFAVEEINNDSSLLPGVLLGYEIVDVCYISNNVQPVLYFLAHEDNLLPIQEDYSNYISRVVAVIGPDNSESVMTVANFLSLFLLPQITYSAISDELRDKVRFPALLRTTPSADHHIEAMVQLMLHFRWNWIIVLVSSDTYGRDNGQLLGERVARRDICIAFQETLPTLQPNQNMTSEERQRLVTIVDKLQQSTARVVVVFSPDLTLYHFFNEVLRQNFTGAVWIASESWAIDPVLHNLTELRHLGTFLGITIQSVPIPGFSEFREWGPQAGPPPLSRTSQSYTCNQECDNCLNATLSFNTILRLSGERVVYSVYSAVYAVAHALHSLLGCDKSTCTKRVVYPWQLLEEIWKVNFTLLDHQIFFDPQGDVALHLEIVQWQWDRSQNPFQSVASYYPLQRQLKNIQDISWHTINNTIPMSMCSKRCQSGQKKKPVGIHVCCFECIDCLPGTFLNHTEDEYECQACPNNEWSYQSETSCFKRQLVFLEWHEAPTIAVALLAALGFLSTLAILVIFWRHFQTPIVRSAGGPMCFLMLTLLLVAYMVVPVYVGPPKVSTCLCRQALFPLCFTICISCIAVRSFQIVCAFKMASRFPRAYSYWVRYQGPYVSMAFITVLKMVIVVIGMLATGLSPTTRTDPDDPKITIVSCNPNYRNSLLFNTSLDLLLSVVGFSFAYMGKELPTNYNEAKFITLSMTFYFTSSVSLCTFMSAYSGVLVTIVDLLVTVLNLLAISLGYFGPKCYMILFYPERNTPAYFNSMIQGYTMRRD
T1 sequence (Q7RTX0 21-852 C757R): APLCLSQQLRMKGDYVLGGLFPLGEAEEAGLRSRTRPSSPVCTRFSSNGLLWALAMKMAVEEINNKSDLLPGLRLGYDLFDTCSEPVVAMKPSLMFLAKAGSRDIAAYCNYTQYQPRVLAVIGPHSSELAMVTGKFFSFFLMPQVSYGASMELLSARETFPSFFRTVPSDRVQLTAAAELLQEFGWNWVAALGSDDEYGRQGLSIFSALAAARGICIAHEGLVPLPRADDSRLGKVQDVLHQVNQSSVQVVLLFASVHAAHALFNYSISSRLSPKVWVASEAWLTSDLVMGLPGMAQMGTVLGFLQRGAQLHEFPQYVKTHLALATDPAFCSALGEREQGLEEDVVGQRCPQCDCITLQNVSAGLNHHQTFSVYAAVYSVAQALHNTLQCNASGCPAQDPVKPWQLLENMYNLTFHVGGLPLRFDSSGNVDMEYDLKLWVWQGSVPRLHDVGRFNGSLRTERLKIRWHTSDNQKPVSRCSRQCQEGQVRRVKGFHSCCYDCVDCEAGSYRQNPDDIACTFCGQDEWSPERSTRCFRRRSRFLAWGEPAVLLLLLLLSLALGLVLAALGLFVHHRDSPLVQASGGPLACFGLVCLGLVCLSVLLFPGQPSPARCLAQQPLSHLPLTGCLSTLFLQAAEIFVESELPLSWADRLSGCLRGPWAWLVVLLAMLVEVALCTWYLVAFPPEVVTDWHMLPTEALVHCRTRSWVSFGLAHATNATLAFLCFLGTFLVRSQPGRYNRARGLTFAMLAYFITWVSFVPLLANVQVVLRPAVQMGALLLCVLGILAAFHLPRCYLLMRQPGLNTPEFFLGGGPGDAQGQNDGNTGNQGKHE
The test is described as follows: Intracellular calcium assay (ΔF/F, S/N ratio) in HEK293E cells expressing hT1R2 and hT1R3 with Gα15-trans48LD.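 Note: fluorescence read over 120 s after adding sweet stimulant across several concentrations, S/N taken as highest over lowest ΔF/F, higher meaning more sensitive detection.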 The class given is cell-based.

Setting [1] is: Table 3, genes hT2/hT3 (hT1R2, hT1R3), max ΔF/F over min ΔF/F across concentrations.
[2] abbreviates: Table 4, genes hT2/hT3 (hT1R2, hT1R3).
Setting [3] is: Table 5, genes hT2/hT3 (hT1R2, hT1R3).
The mark [4] stands for this setting: Table 6, genes hT2/hT3 (hT1R2, hT1Rm3).

Experimental: The HEK293E cells maintained by using the DMEM/Ham's F-12 medium (Nakarai Tesque) containing 10% fetal bovine serum ([sequence]) and 1% Pen Strep (GIBCO) were washed with D-PBS(−) (Nakarai Tesque), and collected from the flask by using 0.25% Trypsin EDTA (GIBCO). The cells were centrifuged (1,200 rpm, 3 minutes), and after the supernatant was removed, suspended in 5% FBS DMEM/Ham's F-12 at a density of 0.75×10^7 cell/ml. This suspension (10 ml) was put into a 150 cm^3 flask (IWAKI), and culture was performed overnight (37° C., 5% CO2).
After the gene transfer, the cells were washed with D-PBS(−), then removed from the flask by using 0.25% Trypsin EDTA (GIBCO), and collected. […] This cell suspension was put into wells of D-Lysine coat 96-well plate (BD bioscience) in such a volume that the cell count is 7.0×10^4 cells/well, and the cells were cultured overnight.
After the culture, all the medium of the 96 wells were discarded. […] After the staining, 50 μl of a solution of stimulant (sweet taste substance) prepared with the assay buffer was added to each well, and the fluorescence value was measured for 120 seconds after the stimulation by using FDSSμEELL (Hamamatsu Photonics). […] The measurement and analysis of the fluorescence value was performed by using the software attached to FDSSμEELL (FDSS7000EX), and ΔF/F value was calculated in accordance with the following equation, and used for the evaluation. ΔF/F=(Maximum fluorescence value after stimulation−Minimum fluorescence value after stimulation)/(Fluorescence value before stimulation)
Furthermore, by using the ΔF/F values obtained when each sweet taste substance was added, the S/N ratio was calculated. Specifically, the S/N value was calculated by using the minimum value of ΔF/F obtained when each substance was added at various concentrations as noise (N) value, and the similarly obtained maximum value of ΔF/F as the signal (S) value, and used as an index for sensitivity of the measurement of the activity of each receptor.

As to `CC1=CC(=O)NS(=O)(=O)O1` [Acesulfame K, acesulfame potassium], the S/N under setting [1] came out at 1.9, the S/N under setting [2] came to 1.9, the S/N under setting [3] is 1.9 and the S/N under setting [4] was 1.9.
For `COC(=O)[C@H](Cc1ccccc1)NC(=O)[C@H](CC(=O)O)NCCCc1ccc(OC)c(O)c1` [Advantame, advantame], the S/N by setting is: under setting [1], 3.2; under setting [2], 3.2; under setting [3], 3.2; under setting [4], 3.2.
As to `COC(=O)[C@H](Cc1ccccc1)NC(=O)[C@@H](N)CC(=O)O` [Aspartame, aspartame] (HELM PEPTIDE1{D.F.[CO[*:1]]}$$$$V2.0), the S/N under setting [1] worked out at 1.6, the S/N under setting [2] was 1.6, the S/N under setting [3] was determined as 1.6 and the S/N under setting [4] was determined as 1.6.
For the compound `COc1ccc(CCC(=O)c2c(O)cc(O[C@@H]3O[C@H](CO)[C@@H](O)[C@H](O)[C@H]3O[C@@H]3O[C@@H](C)[C@H](O)[C@@H](O)[C@H]3O)cc2O)cc1O` [NHDC, neohesperidin dihydrochalcone], the S/N came to 2.0 under setting [3] and 2.0 under setting [4].
Regarding `COC(=O)[C@H](Cc1ccccc1)NC(=O)[C@H](CC(=O)O)NCCC(C)(C)C` [Neotame, neotame], the S/N is 2.9 under setting [1], 2.9 under setting [2], 2.9 under setting [3] and 2.9 under setting [4].
Regarding `C[C@H](NC(=Nc1ccc(C#N)cc1)NCC(=O)O)c1ccccc1` [SC-45647, [3-[(S)-1-phenylethyl]-2-(4-cyanophenyl)guanidino]acetic acid], the S/N is, setting by setting: under setting [1], 3.0; under setting [2], 3.0; under setting [3], 3.0; under setting [4], 3.0.
For `O=C1NS(=O)(=O)c2ccccc21.[Na]` [Saccharin Na, sodium saccharin], the S/N is on record as 2.5 under setting [1], 2.5 under setting [2], 2.5 under setting [3] and 2.5 under setting [4].
Regarding `OC[C@H]1O[C@H](O[C@]2(CCl)O[C@H](CCl)[C@@H](O)[C@@H]2O)[C@H](O)[C@@H](O)[C@H]1Cl` [Sucralose, sucralose], the S/N came to 3.3 under setting [1], 3.3 under setting [2], 3.3 under setting [3] and 3.3 under setting [4].
In the case of `OC[C@H]1O[C@@](CO)(O[C@H]2O[C@H](CO)[C@@H](O)[C@H](O)[C@H]2O)[C@@H](O)[C@@H]1O` [Sucrose, sucrose], the S/N runs as follows: under setting [1], 1.9; under setting [2], 1.9; under setting [3], 1.9; under setting [4], 1.9.
